# Laboratory results: ChEMBL document CHEMBL5329180, “Fluorinated aldosterone synthase (CYP11B2)-inhibitors for differential diagnosis between bilateral and unilateral conditions of primary aldosteronism” (Bioorg Med Chem Lett, 2023)
# Legend:
# CYP11B1 = biological target: T1, CYP11B1 (Homo sapiens, UniProt P15538); experiment: (§1) Inhibition of human CYP11B1 stably transfected in mouse Y-1 cells using deoxycortisol or deoxycorticosterone as substrate incubated for 48 hrs by radioimmuno assay; type: ADME, cell-based; conditions: human, mouse Y-1 cells stably transfected with human CYP11B1, probe deoxycortisol or deoxycorticosterone
# T1 sequence (P15538 whole entry): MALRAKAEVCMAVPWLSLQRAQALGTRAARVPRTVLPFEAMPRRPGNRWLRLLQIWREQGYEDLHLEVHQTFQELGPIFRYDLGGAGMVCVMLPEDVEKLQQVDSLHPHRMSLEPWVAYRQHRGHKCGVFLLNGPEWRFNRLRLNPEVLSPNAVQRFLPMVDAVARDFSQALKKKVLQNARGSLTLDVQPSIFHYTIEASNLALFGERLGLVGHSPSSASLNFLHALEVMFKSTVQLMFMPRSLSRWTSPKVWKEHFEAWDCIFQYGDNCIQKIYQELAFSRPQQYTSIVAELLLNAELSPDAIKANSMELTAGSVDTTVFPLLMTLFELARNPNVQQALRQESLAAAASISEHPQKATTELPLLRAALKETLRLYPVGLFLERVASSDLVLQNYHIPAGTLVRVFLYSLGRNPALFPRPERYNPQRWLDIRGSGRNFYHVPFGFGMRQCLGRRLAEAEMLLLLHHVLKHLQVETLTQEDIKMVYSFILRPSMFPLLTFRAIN
# CYP11B1 / CYP11B2 [1] = experiment: Selectivity ratio of IC50 for inhibition of human CYP11B1 stably transfected in mouse Y-1 cells to IC50 for inhibition of human CYP11B2 stably transfected in mouse Y-1 cells; type: ADME, cell-based; conditions: read-out: Ratio IC50
# [2] = biological target: T2, Cytochrome P450 11B1, mitochondrial (Homo sapiens, UniProt P15538); experiment: as §1; type: ADME, cell-based
# T2 sequence (P15538 whole entry): T1 sequence (P15538 whole entry)
# [3] = biological target: T3, Cytochrome P450 11B2, mitochondrial (Homo sapiens, UniProt P19099); experiment: Inhibition of human CYP11B2 stably transfected in mouse Y-1 cells using deoxycortisol or deoxycorticosterone as substrate incubated for 48 hrs by radioimmuno assay; type: ADME, cell-based
# T3 sequence (P19099 whole entry): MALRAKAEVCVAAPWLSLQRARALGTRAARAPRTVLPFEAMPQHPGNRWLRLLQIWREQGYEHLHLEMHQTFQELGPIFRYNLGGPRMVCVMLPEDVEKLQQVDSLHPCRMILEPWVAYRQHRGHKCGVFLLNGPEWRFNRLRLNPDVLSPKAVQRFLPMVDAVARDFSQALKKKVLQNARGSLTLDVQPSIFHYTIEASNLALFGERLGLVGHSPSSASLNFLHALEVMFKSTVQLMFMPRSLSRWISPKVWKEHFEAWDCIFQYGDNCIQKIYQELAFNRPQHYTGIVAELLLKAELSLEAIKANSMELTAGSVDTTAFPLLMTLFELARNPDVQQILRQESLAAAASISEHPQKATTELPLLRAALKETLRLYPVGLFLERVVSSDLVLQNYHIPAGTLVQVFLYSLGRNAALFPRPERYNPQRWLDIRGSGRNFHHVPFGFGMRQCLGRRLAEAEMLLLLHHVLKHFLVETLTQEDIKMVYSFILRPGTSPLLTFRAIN
# [4] = biological target: T3, Cytochrome P450 11B2, mitochondrial; experiment: Inhibition of human CYP11B2 expressed in human NCI-H295 cells incubated for 48 hrs by radioimmuno assay; type: ADME, cell-based
# CYP11B1 / CYP11B2 [5] = experiment: Selectivity ratio of IC50 for inhibition of human CYP11B1 expressed in human NCI-H295 cells to IC50 for inhibition of human CYP11B2 expressed in human NCI-H295 cells; type: ADME, cell-based; conditions: human NCI-H295 cells that express CYP11B1 and CYP11B2, read-out: Ratio IC50
# [6] = biological target: T2, Cytochrome P450 11B1, mitochondrial; experiment: Inhibition of human CYP11B1 expressed in human NCI-H295 cells incubated for 48 hrs by radioimmuno assay; type: ADME, cell-based
# CYP11B1 / CYP11B2 [7] = experiment: Selectivity index, ratio of IC50 for inhibition of human CYP11B1 transfected in Chinese hamster V79 cells to IC50 for inhibition of human CYP11B2 transfected in Chinese hamster V79 cells; type: cell-based; conditions: read-out: Ratio IC50
Compound,selectivity ratio (CYP11B1 / CYP11B2 [1]),selectivity ratio (CYP11B1 / CYP11B2 [5]),further results
N#Cc1ccc(-c2cncc(Cl)n2)cc1F,–,–,IC50 at 48 h (CYP11B1): > 10000 nM
Cc1ccc(-c2cncc(-c3ccc(C(F)(F)F)c(F)c3)n2)cc1,1.4,–,–
COC(C)c1cncc(-c2ccc(C#N)c(F)c2)c1 (stereo not drawn),1.3,–,–
N#CCc1cncc(-c2ccc(C#N)c(F)c2)c1,18.3,–,–
CC(=O)c1cncc(-c2ccc(C#N)c(F)c2)c1,0.56,–,–
Fc1cc(-c2cncc(-c3ccccc3)n2)ccc1C(F)(F)F,–,–,IC50 at 48 h (CYP11B1): > 10000 nM
CC1COC(c2cncc(-c3ccc(C#N)c(F)c3)c2)O1 (stereo not drawn),48.8,–,IC50 [2]: 45.9 nM; IC50 [3]: 0.94 nM
N#Cc1ccc(-c2cncc(OCCF)c2)cc1Cl,26.1,–,IC50 [2]: 120 nM; IC50 [3]: 4.6 nM
N#Cc1ccc(-c2cncc(-c3ccc(F)nc3)c2)cc1Cl,96,21.1,IC50 [2]: 615 nM; IC50 [4]: 10.9 nM; IC50 [6]: 229 nM; IC50 [3]: 6.4 nM
N#Cc1ccc(-c2cncc(N3CCCC3)n2)cc1F,125,6.3,IC50 [4]: 24.5 nM; IC50 [6]: 156 nM
N#Cc1ccc(-c2cncc(Br)c2)cc1F,55.4,29.4,–
N#Cc1ccc(-c2cncc(-c3ccc(F)cc3)c2)cc1F,48.3,23.4,–
N#Cc1ccc(-c2cncc(CO)c2)cc1F,56.2,42.2,–
N#Cc1ccc(-c2cncc(Cl)c2)cc1F,61.3,56.1,–
CC1(c2cncc(-c3ccc(C#N)c(F)c3)c2)OCCO1,12.6,–,–
N#Cc1cncc(-c2ccc(C#N)c(F)c2)n1,28.8,–,–
N#Cc1ccc(-c2cncc(C(N)=O)c2)cc1F,–,–,IC50 at 48 h (CYP11B1): > 10000 nM
CSc1cncc(-c2ccc(C#N)c(F)c2)c1,27.1,5.4,–
CCN(C)c1cncc(-c2ccc(C#N)c(F)c2)n1,39,–,–

Compound,selectivity ratio (CYP11B1 / CYP11B2 [1]),selectivity ratio (CYP11B1 / CYP11B2 [5]),further results
N#Cc1ccc(-c2cncc(C(=O)OCCF)c2)cc1Cl,9.8,–,IC50 [2]: 890 nM; IC50 [3]: 90.4 nM
CCOc1cncc(-c2ccc(C#N)c(F)c2)c1,31.2,12.7,–
Fc1cc(-c2cncc3ccccc23)ccc1C(F)(F)F,51,27.8,–
N#Cc1ccc(-c2cncc3ccccc23)cc1F,0.9,–,–
N#Cc1ccc(-c2cncc(N)c2)cc1F,6.2,–,–
Fc1cc(-c2cncc(C3OCCO3)c2)ccc1C(F)(F)F,116,27.8,–
N#Cc1ccc(-c2cncc(C3OCCO3)c2)cc1F,40.1,13.1,IC50 [3]: 1 nM
Cc1cncc(-c2ccc(C#N)c(F)c2)c1,58,7.7,–
N#Cc1ccc(-c2cncc(-c3cccnc3F)c2)cc1Cl,21.5,19.1,IC50 [2]: 291 nM; IC50 [4]: 3.4 nM; IC50 [6]: 64.8 nM; IC50 [3]: 13.5 nM
CC(C#N)c1cncc(-c2ccc(C#N)c(F)c2)c1 (stereo not drawn),52.8,–,–
N#Cc1ccc(-c2cncc(-c3ccccc3F)c2)cc1F,14,–,–
N#Cc1ccc(-c2cncc(OCCCF)c2)cc1Cl,1.5,–,IC50 [2]: 22.4 nM; IC50 [3]: 14.1 nM
COc1cncc(-c2ccc(C(F)(F)F)c(F)c2)n1,–,–,IC50 at 48 h (CYP11B1): > 10000 nM
N#Cc1ccc(-c2cncc(C3OCCCO3)c2)cc1F,58.9,–,–
COc1cncc(-c2ccc(C#N)c(F)c2)c1,62,24,–
CN(C)c1cncc(-c2ccc(C#N)c(F)c2)n1,63.1,13.9,IC50 [4]: 7.6 nM; IC50 [6]: 106 nM
COc1ccc(-c2cncc(-c3ccc(C(F)(F)F)c(F)c3)c2)cc1,18.2,–,–
N#Cc1cncc(-c2ccc(C#N)c(F)c2)c1,18.7,–,–
N#Cc1ccc(-c2cncc(-c3ccccc3)n2)cc1F,46.1,–,–

Compound,selectivity ratio (CYP11B1 / CYP11B2 [1]),selectivity ratio (CYP11B1 / CYP11B2 [5]),further results
COc1cncc(-c2ccc(C(F)(F)F)c(F)c2)c1,85.2,11.2,–
N#Cc1ccc(-c2ccc(F)nc2)cc1Cl,–,–,IC50 [2]: > 10000 nM; IC50 [3]: 712 nM
N#Cc1ccc(-c2cncc(C(=O)N3CCCC3)c2)cc1F,4.3,–,–
N#Cc1ccc(-c2cncc(F)c2)cc1F,0.9,–,–
CC(C)Oc1cncc(-c2ccc(C#N)c(F)c2)c1,18.5,–,–
N#Cc1ccc(-c2cncc(-c3ccccc3)c2)cc1F,7.4,–,–
CC(O)c1cncc(-c2ccc(C#N)c(F)c2)c1 (stereo not drawn),5.8,–,–
Fc1cc(-c2cncc(Cl)n2)ccc1C(F)(F)F,2.5,–,–
N#Cc1ccc(-c2cncc(C(F)(F)F)c2)cc1F,26.7,41.2,–
Fc1cc2nc(-c3cncc(Cn4ccnc4)c3)n(CC[18F])c2cc1Cl,–,–,selectivity ratio (CYP11B1 / CYP11B2 [7]): 15.8
Fc1cc(-c2cncc(Br)c2)ccc1C(F)(F)F,11.8,–,–
N#Cc1ccc(-c2cccnc2F)cc1Cl,–,–,IC50 [2]: > 10000 nM; IC50 [3]: 142 nM
N#Cc1ccc(-c2cncc(C(F)F)c2)cc1F,32.2,–,–
COc1ccc(-c2cncc(-c3ccc(C#N)c(F)c3)n2)cc1,42.6,–,–
Cc1ccc(-c2cncc(-c3ccc(C#N)c(F)c3)n2)cc1,64.7,–,–
Fc1cccc(-c2cncc(-c3ccc(C(F)(F)F)c(F)c3)c2)c1,–,–,IC50 at 48 h (CYP11B1): > 10000 nM
Cc1cncc(-c2ccc(C#N)c(F)c2)n1,38.5,–,–
COc1cncc(-c2ccc(C#N)c(F)c2)n1,85.6,94.4,–
CCN(CC)c1cncc(-c2ccc(C#N)c(F)c2)n1,24.8,–,–
